Results taken from patent US20230371814A1, “WIRELESS THERANOSTIC SMART CONTACT LENS CAPABLE OF MEASURING AND ADJUSTING INTRAOCULAR PRESSURE IN GLAUCOMA PATIENTS” (POSTECH RESEARCH AND BUSINESS DEVELOPMENT FOUNDATION, priority 2022, published 2023).

Assay: In vitro release of timolol from the drug reservoir of the flexible DDS
Assay type: physicochemical
Procedure: An electrochemical reaction of gold was examined in vitro in PBS (pH 7.4) and artificial tears having a constant voltage of 1.85 V. Timolol was released from the drug reservoir by applying a voltage of 1.85 V to an anode and a cathode of a DDS for 5 minutes. A concentration of the released timolol was quantified with a UV-vis spectrometer at an absorbance wavelength of 259 nm.

- drug (timolol) released (absence of the PVA layer): less than 50%
- timolol released without electrical triggering (for 90 minutes, without electrical triggering): less than 5%
- drug (timolol) dissolution (presence of PVA): completely dissolved
- time until almost all of the timolol was completely released (presence of PVA): ≤ 30 min
- timolol released within 5 minutes (presence of PVA, within 5 minutes): less than 85%
- cumulative release of timolol at each activation (three reservoirs activated at 10, 25 and 40 minutes): significantly enhanced
- cumulative release of timolol before activation (three reservoirs, until 10 minutes (before first activation)): no significant release
Structure (SMILES): CC(C)(C)NC[C@H](O)COc1nsnc1N1CCOCC1 [timolol]
